Measurements from publication PMC9728921, “Characterization of a KDM5 small molecule inhibitor with antiviral activity against hepatitis B virus” (PLOS ONE, 2022).

Tests used:
NSD1 = molecular target: T1, NSD1 (Homo sapiens, UniProt Q96L73); assay: Histone methyltransferase enzymatic assay, NSD1; format: biochemical; details: enzyme conc. 50 nM
T1 construct: 1538-2696; purchased RBC (read as Reaction Biology Corporation, named)
Method: (§1) Histone methyltransferase assays were performed in 96-well half-area optiplates (PerkinElmer) at room temperature. All concentrations are final unless noted otherwise. Compounds were serially diluted in DMSO and the final DMSO concentration was 1%. A 24 μL reaction mixture contained compound, enzyme, 200 nM of nucleosome or histone substrate, 400 nM ^3H-SAM (83.1 Ci/mmol), 50 mM Tris-HCl (pH 8.0), 50 mM NaCl, 5 mM MgCl2, 1 mM DTT, and 0.01% Tween-20. The plate was sealed, mixed on a Titramax plate shaker at 1200 rpm for 30 sec, and incubated at room temperature for 60 min. The reaction was quenched by addition of 24 μL mixture containing 5 mg/mL PVT-PEI beads and 300 μM unlabeled SAM in water. The plate was sealed, mixed as previously noted, incubated overnight, and read on a TopCount plate reader (PerkinElmer).
(§2) Data was analyzed using GraphPad Prism 6.0 (La Jolla, CA). […] IC50 values were calculated as an average of at least two independent experiments.

SETDB1 = molecular target: T2, SETDB1 (Homo sapiens, UniProt Q15047); assay: Histone methyltransferase enzymatic assay, SETDB1; format: biochemical; details: enzyme conc. 100 nM
T2 construct: 510-1290
Method: as §1, §2

KDM6B = KDM6B (Homo sapiens, UniProt O15054); assay: KDM6B enzymatic assay (AlphaLISA); format: biochemical
Method: The following assay protocol was used for all histone demethylases tested except KDM1A, KDM5A, B, and D, which are described below. Compounds were serially diluted into a 384-well Alpha plate as a DMSO solution and mixed with 5 μL reaction buffer (buffer A) containing 50 mM HEPES (pH 7.0), 0.1% BSA, and 0.003% Tween-20. The enzyme of interest was pre-incubated with 15 μM of Fe^2+ for 10 min (except 30 min for KDM2B) in reaction buffer A. 5 μL of the enzyme mixture was added to each of the compound-containing wells and incubated for 10 min. The reaction was started by addition of a 5 μL mixture containing 300 nM peptide substrate, 75 μM L-ascorbic acid, and 30 μM α-ketoglutarate in buffer A. This final 15 μL of reaction mixture was incubated for 20 min for KDM5B and 1 hour for the other KDM enzymes. The reaction was quenched with 10 μL of diluted AlphaLISA Acceptor beads (1:400) in Epigenetics Buffer and incubated for 60 min. The Donor beads were diluted 1:400 into Epigenetics Buffer in the dark and 10 μL of this was added to each well and incubated for another 60 min in the dark. The assay plates were read on an Enspire plate reader (PerkinElmer) using a standard AlphaLISA program.
as §2

[1] = Liver to plasma AUC ratio, rat; format: in vivo, Sprague Dawley rats; details: male, Sprague Dawley, liver and plasma, po, 1 mg/kg, read-out: GS-080 liver to plasma AUC ratio
Method: Rats and monkeys were dosed by oral gavage once with 1 mg/kg or 2.5 mg/kg, respectively. The rat study included a vehicle control group (water). Serial venous blood samples were taken at 0, 0.25, 0.5, 1, 2, 4, 6, 8, 12, and 24 hours post dose from each animal and collected into vacutainer tubes containing potassium oxalate/sodium fluoride (Thermo Fisher; BD367925) as the anti-coagulant and blood was centrifuged for plasma isolation. […] For monkey, liver samples were taken by biopsy at pre-dose, 1, 4, 24, 48, and 72 hours post dose (n = 2 per time point). Rat and monkey livers were weighed and immediately flash frozen in liquid nitrogen.
500 μL of cold HPLC grade water was added to each monkey liver biopsy sample and rat liver samples were diluted 3-fold with cold HPLC grade water. Diluted liver samples were homogenized between 1 and 3 minutes. 50 μL of plasma samples and homogenized liver samples were quenched with 200 μL of 0.05% formic acid in acetonitrile. […] An Agilent 1200 series binary pump (Santa Clara, CA; G1312A) was used for elution and separation of compounds with a Hypersil Gold C18 HPLC column (Thermo Fisher; 50 x 3.0 mm, 5 μm) over 6.75 minutes with 99–3% gradient of Mobile Phase A (1% acetonitrile in 2.5 mM ammonium formate aqueous solution pH 2.6) and 1–97% gradient Mobile Phase B (90% acetonitrile in aqueous 10 mM ammonium formate pH 6.8).

KDM6B, sequence (O15054 whole entry): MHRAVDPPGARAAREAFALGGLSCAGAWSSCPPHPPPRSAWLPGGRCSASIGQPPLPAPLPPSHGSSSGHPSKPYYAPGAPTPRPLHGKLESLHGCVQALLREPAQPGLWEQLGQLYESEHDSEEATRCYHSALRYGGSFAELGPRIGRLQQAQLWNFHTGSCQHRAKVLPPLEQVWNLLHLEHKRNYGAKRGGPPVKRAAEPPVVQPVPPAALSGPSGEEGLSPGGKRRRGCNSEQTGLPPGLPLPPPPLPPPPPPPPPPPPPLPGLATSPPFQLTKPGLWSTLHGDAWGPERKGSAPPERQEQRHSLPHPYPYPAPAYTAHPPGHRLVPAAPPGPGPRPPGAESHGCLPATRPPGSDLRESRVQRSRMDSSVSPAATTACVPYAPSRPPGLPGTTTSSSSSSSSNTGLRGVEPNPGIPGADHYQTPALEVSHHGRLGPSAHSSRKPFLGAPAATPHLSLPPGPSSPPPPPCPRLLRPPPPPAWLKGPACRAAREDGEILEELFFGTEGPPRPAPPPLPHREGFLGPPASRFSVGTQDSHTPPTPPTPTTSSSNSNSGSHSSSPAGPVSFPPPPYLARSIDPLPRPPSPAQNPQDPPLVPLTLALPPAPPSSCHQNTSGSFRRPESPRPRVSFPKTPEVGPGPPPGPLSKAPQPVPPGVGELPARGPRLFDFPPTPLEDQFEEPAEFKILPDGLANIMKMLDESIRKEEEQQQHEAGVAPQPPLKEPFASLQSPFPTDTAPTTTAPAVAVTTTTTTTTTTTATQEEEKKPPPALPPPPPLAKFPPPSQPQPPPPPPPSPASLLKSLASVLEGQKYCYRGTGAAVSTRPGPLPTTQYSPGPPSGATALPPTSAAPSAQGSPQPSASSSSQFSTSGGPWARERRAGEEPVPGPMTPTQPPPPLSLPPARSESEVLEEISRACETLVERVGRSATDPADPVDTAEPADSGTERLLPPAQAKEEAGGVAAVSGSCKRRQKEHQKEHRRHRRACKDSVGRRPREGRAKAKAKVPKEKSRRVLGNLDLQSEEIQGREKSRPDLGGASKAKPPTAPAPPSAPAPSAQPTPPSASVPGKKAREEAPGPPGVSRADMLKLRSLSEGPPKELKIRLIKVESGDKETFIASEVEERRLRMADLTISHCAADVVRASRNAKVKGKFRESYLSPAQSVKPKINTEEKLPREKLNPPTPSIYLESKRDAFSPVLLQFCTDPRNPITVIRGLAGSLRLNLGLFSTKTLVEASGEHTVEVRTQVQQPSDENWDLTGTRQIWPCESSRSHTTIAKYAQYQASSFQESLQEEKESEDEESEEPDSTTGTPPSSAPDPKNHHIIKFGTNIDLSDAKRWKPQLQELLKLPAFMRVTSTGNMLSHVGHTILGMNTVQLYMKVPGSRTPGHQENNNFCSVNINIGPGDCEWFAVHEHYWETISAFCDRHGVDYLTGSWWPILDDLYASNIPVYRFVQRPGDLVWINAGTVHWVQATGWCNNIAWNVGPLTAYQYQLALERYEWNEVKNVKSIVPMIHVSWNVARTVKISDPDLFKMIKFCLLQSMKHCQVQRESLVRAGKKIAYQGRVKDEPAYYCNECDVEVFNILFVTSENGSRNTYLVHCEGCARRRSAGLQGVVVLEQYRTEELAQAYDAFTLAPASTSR
T1 sequence (Q96L73 1538-2696): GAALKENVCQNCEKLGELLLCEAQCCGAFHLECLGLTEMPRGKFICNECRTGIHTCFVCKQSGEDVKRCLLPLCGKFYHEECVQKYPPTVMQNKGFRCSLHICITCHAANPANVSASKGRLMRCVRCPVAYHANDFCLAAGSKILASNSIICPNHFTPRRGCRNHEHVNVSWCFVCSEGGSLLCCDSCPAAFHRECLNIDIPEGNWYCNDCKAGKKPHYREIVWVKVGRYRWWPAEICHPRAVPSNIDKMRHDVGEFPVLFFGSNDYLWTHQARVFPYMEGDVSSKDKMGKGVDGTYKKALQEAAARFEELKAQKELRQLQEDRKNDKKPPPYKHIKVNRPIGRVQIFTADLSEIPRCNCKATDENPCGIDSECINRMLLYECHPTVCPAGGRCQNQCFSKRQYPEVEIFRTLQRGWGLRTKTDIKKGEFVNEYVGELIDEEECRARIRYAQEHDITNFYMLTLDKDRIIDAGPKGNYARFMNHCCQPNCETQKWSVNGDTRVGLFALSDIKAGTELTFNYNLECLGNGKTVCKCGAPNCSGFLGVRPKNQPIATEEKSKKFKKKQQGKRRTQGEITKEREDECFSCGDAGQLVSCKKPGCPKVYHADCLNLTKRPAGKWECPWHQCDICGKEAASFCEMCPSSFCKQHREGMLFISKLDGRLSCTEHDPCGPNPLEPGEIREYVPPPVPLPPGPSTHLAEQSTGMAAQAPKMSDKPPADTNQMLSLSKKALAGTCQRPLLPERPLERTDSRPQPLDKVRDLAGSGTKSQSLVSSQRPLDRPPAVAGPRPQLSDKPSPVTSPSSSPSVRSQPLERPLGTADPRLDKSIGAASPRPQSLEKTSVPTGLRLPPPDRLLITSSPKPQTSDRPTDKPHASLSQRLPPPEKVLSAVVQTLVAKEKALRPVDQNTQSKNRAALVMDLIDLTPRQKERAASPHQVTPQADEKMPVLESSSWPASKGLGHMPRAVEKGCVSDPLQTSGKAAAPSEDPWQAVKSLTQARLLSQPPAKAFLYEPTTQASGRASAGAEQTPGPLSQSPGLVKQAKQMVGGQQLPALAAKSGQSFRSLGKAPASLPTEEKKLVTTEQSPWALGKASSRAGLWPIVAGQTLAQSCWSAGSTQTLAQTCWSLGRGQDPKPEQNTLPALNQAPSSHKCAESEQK

IC50 (NSD1): > 100 µM
IC50 (SETDB1): > 100 µM
Fold Selectivity Compared to KDM5A (KDM6B; IC50 of KDM6B over KDM5A): > 17,200 fold
IC50 (KDM6B; enzyme concentration 1 nM, read-out: IC50): 6.2 µM
Kp [1]: 44
Compound: CCN(CCN(C)C)C(=O)CNCc1cc(C(=O)O)ccn1 [GS-080]
